Reference: ChEMBL document CHEMBL4152297, “Ligand-selective small molecule modulators of the constitutively active vGPCR US28” (Eur J Med Chem, 2018)
Calls of active or inactive are those of the source. The calls are words filed in the database; no cut-off is given here.

Experiments:
HEK293 [1] = assay: Modulation of basal activity of HCMV US28 expressed in tetracyclin-induced HEK293 cells assessed as change in inositol phosphate accumulation at 10 uM using [3H]-myo-inositol by scintillation proximity assay relative to control; format: cell-based; conditions: Human betaherpesvirus 5
[2] = Modulation of basal activity of HCMV US28 expressed in tetracyclin-induced HEK293 cells assessed as change in inositol phosphate accumulation using [3H]-myo-inositol by scintillation proximity assay; format: cell-based; conditions: Human betaherpesvirus 5, HEK293
[3] = Modulation of basal activity of HCMV US28 delta300 mutant expressed in tetracyclin-induced HEK293 cells assessed as change in inositol phosphate accumulation using [3H]-myo-inositol by scintillation proximity assay; format: cell-based; conditions: Human betaherpesvirus 5, HEK293
HEK293 [4] = assay: Modulation of basal activity of HCMV US28 delta300 mutant expressed in tetracyclin-induced HEK293 cells assessed as change in inositol phosphate accumulation at 10 uM using [3H]-myo-inositol by scintillation proximity assay relative to control; format: cell-based; conditions: Human betaherpesvirus 5
HEK293 [5] = assay: Displacement of [125I]-CCL2 from HCMV US28 expressed in HEK293 cells at 10 uM after 3 hrs by gamma counting method relative to control; format: cell-based; conditions: Human betaherpesvirus 5
[6] = Displacement of [125I]-CCL2 from HCMV US28 expressed in HEK293 cells after 3 hrs by gamma counting method; format: cell-based, Human betaherpesvirus 5
HEK293 [7] = assay: Displacement of [125I]-CX3CL1 from HCMV US28 expressed in HEK293 cells at 10 uM after 3 hrs by gamma counting method relative to control; format: cell-based; conditions: Human betaherpesvirus 5
[8] = Agonist activity at HCMV US28 expressed in African green monkey COS7 cells assessed as increase in inositol phosphate accumulation using [3H]-myo-inositol after 90 mins by scintillation proximity assay; format: cell-based; conditions: Human betaherpesvirus 5, COS-7
[9] = Inverse agonist activity at HCMV US28 expressed in African green monkey COS7 cells assessed as inhibition of inositol phosphate accumulation using [3H]-myo-inositol by liquid scintillation counting method; format: cell-based; conditions: Human betaherpesvirus 5, COS-7
HEK293 [10] = assay: Displacement of [125I]-CCL4 from HCMV US28 expressed in HEK293 cells at 10 uM after 3 hrs by gamma counting method relative to control; format: cell-based; conditions: Human betaherpesvirus 5
HEK293 [11] = assay: Effect on inositol phosphate accumulation in HEK293 cells at 10 uM using [3H]-myo-inositol by scintillation proximity assay; format: cell-based; conditions: human, hek293, 10 µM
[12] = Inverse agonist activity at HCMV US28 expressed in African green monkey COS7 cells assessed as inhibition of inositol phosphate accumulation using [3H]-myo-inositol after 90 mins by scintillation proximity assay; format: cell-based; conditions: Human betaherpesvirus 5, COS-7

Row | Compound | Efficacy (HEK293 [1]) | EC50 ([2]; read-out: EC50) | EC50 ([2]; read-out: pEC50 (converted)) | EC50 ([3]; read-out: EC50) | EC50 ([3]; read-out: pEC50 (converted)) | Efficacy (HEK293 [4]) | Efficacy (HEK293 [5]) | further results
1 | O=C(CN1CCN(CC2CCCCC2)CC1)Nc1ccc(F)cc1 | -15% | – | – | – | – | – | – | –
2 | O=C(CN1CCN(Cc2cccc3ccccc23)CC1)Nc1ccc2c(c1)OCO2 | -24% | 0.039 µM | 0.0398 µM | > 10 µM | < 10 µM | 53% | – | –
3 | O=C(CN1CCN(Cc2nc3ccccc3[nH]2)CC1)Nc1ccc(F)cc1F | – | – | – | – | – | – | -7% | –
4 | CCc1ccc(-c2nc(CN3CCN(CC(=O)NC4CC4)CC3)cs2)cc1 | – | – | – | 11 µM | 10 µM | 51% | – | –
5 | O=C(CN1CCC(Cn2cnc3ccccc32)CC1)N1CCN(c2ccccc2)CC1 | -27% | 3.89 µM | 3.98 µM | 4.8 µM | 5.01 µM | 77% | – | –
6 | O=C(CN1CCC(Cn2cnc3ccccc32)CC1)Nc1ccccn1 | – | – | – | – | – | – | 10% | –
7 | COC(=O)c1ccc(NC(=O)CN2CCC(Cn3c(C)nc4ccccc43)CC2)cc1 | – | – | – | 0.884 µM | 0.794 µM | 70% | 32% | IC50 [6]: 9.56 µM; pIC50 [6]: 5.02
8 | O=C(CN1CCN(Cc2nc(-c3cccc(C(F)(F)F)c3)no2)CC1)NC1CCCCC1 | -23% | 19.1 µM | 20 µM | – | – | – | – | –
9 | Cn1c(CN2CCN(CC(=O)Nc3ccc(F)cc3F)CC2)nc2ccccc21 | -15% | 0.133 µM | 0.126 µM | 9.88 µM | 10 µM | 75% | 6% | –
10 | COc1ccc(-c2csc(NC(=O)CN3CCN(Cc4ccc5c(c4)OCO5)CC3)n2)cc1 | -30% | 1.8 µM | 2 µM | – | – | – | – | –
11 | Cc1nc2ccccc2n1CC1CCN(CC(=O)Nc2cccnc2)CC1 | – | – | – | – | – | – | -2% | –
12 | Cc1sc2nc(CN3CCN(CC(=O)NC4CCC(C)CC4)CC3)[nH]c(=O)c2c1C (centres undefined) | – | – | – | 1.56 µM | 1.58 µM | 118% | – | inhibition (HEK293 [7]): 32%; inhibition (HEK293 [5]): Active
13 | Cc1cc2ncn(CC3CCN(CC(=O)Nc4ccc5c(c4)OCO5)CC3)c2cc1C | – | – | – | 1.52 µM | 1.58 µM | 58% | – | –
14 | CC(=O)c1ccc(N2CCN(Cc3nc4scc(-c5ccccc5)c4c(=O)[nH]3)CC2)cc1 | – | – | – | – | – | – | – | EC50 [8]: 0.95 µM
15 | Cc1ccc(NC(=O)CN2CCC(Cn3cnc4ccccc43)CC2)cc1Cl | 21% | 0.254 µM | 0.251 µM | 0.182 µM | 0.2 µM | 50% | 71% | IC50 [6]: 1.52 µM; pIC50 [6]: 5.82
16 | Cc1nc2ccccc2n1CC1CCN(CC(=O)NCCc2ccccc2)CC1 | – | – | – | 1.8 µM | 2 µM | 107% | – | IC50 [6]: 5.29 µM
17 | Cc1cc2ncn(CC3CCN(CC(=O)Nc4ccccc4C(F)(F)F)CC3)c2cc1C | -12% | 80.7 µM | 79.4 µM | 19.8 µM | 20 µM | 54% | – | –
18 | N#CC(CCCN1CCC(O)(c2ccc(Cl)cc2)CC1)(c1ccccc1)c1ccccc1 [BERLEX COMPOUND] | -31% | 10 µM | 10 µM | 0.86 µM | 0.794 µM | 99% | 60% | EC50 [9]: 3.5 µM; inhibition (HEK293 [7]): inactive; inhibition (HEK293 [10]): 65%
19 | NC(=O)c1ccc(NC(=O)CN2CCC(Cn3cnc4ccccc43)CC2)cc1 | – | – | – | – | – | – | -4% | –
20 | CC(C(=O)Nc1sccc1C(N)=O)N1CCN(Cc2nc3ccccc3s2)CC1 (centres undefined) | -46% | 3.84 µM | 3.98 µM | – | – | – | – | –
21 | O=C(CN1CCC(C(=O)N2CCN(c3ccc(F)cc3)CC2)CC1)Nc1ccc(F)cc1 | -32% | 1.57 µM | 1.55 to 1.58 µM | – | – | – | – | –

Row | Compound | Efficacy (HEK293 [1]) | EC50 ([2]; read-out: EC50) | EC50 ([2]; read-out: pEC50 (converted)) | EC50 ([3]; read-out: EC50) | EC50 ([3]; read-out: pEC50 (converted)) | Efficacy (HEK293 [4]) | Efficacy (HEK293 [5]) | further results
22 | Cc1ccc2nc(CN3CCN(CC(=O)Nc4ccc(F)cc4)CC3)cc(=O)n2c1 | -10% | – | – | – | – | – | – | –
23 | NC(=O)c1ccc(NC(=O)CN2CCC(Cn3c(COc4ccccc4)nc4ccccc43)CC2)cc1 | – | – | – | 7.96 µM | 7.94 µM | 77% | – | –
24 | Cc1ncc(CN2CCN(CC(=O)Nc3ccc(F)cc3)CC2)s1 | -20% | – | – | – | – | – | – | –
25 | O=C(CN1CCN(Cc2csc(-c3ccccc3)n2)CC1)Nc1ccc(F)cc1 | -17% | – | – | – | – | – | – | –
26 | O=C(CN1CCC(Cn2cnc3ccccc32)CC1)Nc1nccs1 | – | – | – | – | – | – | 5% | –
27 | O=C(CN1CCC(Cn2c(C(F)(F)F)nc3ccccc32)CC1)Nc1ccccc1C(F)(F)F | -28% | 1.14 µM | 1.26 µM | – | – | – | – | –
28 | Cc1nc2ccccc2n1CC1CCN(Cc2ccc(F)c(F)c2)CC1 | – | – | – | 1.48 µM | 1.58 µM | 93% | 46% | IC50 [6]: 5.26 µM; pIC50 [6]: 5.28
29 | Cc1cc(C)n(CC2CCN(CC(=O)N3CCc4ccccc43)CC2)n1 | – | – | – | > 10 µM | < 10 µM | 76% | – | –
30 | N#Cc1c(CN2CCN(CC(=O)Nc3ccccc3Cl)CC2)cn2ccccc12 | -15% | 0.067 µM | 0.0631 µM | – | – | – | – | –
31 | CNC(=O)NC(=O)CN1CCC(Cn2c(C)nc3ccccc32)CC1 | – | – | – | – | – | – | 0% | –
32 | O=C(CN1CCN(CN2C(=O)NC3(CCCCC3)C2=O)CC1)Nc1ccc(OC(F)(F)F)cc1 | -12% | 0.536 µM | 0.501 µM | – | – | – | – | –
33 | Cc1nc2ccccc2n1CC1CCN(CC(=O)Nc2cc(C(F)(F)F)ccc2Cl)CC1 | -43% | 0.344 µM | 0.316 µM | – | – | – | 24% | IC50 [6]: 2.99 µM; pIC50 [6]: 5.52
34 | Cc1cc2ncn(CC3CCN(CC(=O)NCc4ccc(F)cc4)CC3)c2cc1C | -16% | 0.033 µM | 0.0316 µM | – | – | – | 25% | IC50 [6]: > 10 µM
35 | Cn1c(CN2CCN(CC(=O)Nc3ccc(OC(F)(F)F)cc3)CC2)nc2ccccc21 | – | – | – | 3.36 µM | 3.16 µM | 59% | 7% | –
36 | O=C(CN1CCN(Cc2nc(-c3ccc(F)cc3)no2)CC1)Nc1ccc(F)cc1 | -54% | 3.04 µM | 3.02 to 3.16 µM | 1.14 µM | 1.26 µM | -23% | – | Activity (HEK293 [11]): Toxic
37 | O=C(CN1CCN(Cc2csc3ccccc23)CC1)NC1CCCC1 | – | – | – | > 10 µM | < 10 µM | 56% | – | –
38 | O=C(CN1CCC(Cn2cnc3ccccc32)CC1)Nc1nc2ccc(F)cc2s1 | – | – | – | – | – | – | 20% | IC50 [6]: > 10 µM
39 | Cc1nc2ccccc2n1CC1CCN(CC(=O)Nc2ccc(F)cc2F)CC1 | -39% | 0.985 µM | 1 µM | – | – | – | 10% | EC50 [12]: 1.76 µM; inhibition (HEK293 [7]): inactive; inhibition (HEK293 [10]): 10%
40 | NC(=O)c1c(NC(=O)CN2CCN(Cc3ccc4c(c3)OCO4)CC2)sc2c1CCCC2 | -31% | 0.089 µM | 0.1 µM | – | – | – | – | –
41 | O=C(CN1CCN(Cc2nc3ccccc3n2Cc2ccccc2)CC1)Nc1ccccc1F | -20% | 9.37 µM | 10 µM | – | – | – | – | –
42 | Cc1nc2ccccc2n1CC1CCN(CC(=O)Nc2ccc(OC(F)(F)F)cc2)CC1 | 26% | 0.269 µM | 0.251 µM | 0.103 µM | 0.1 µM | 86% | 78% | inhibition (HEK293 [7]): 32%; IC50 [6]: 2.11 µM; pIC50 [6]: 5.68
